Columns and labels:
Rattus norvegicus = experiment: Ex vivo receptor occupancy of GHS-R1a in Sprague-Dawley rat hypothalamus at 10 mg/kg, po measured at 1 hr by liquid scintillation counting in presence of [His [125I]]-Ghrelin; type: functional
[1] = target: T1, Muscarinic acetylcholine receptor M2 (Homo sapiens, UniProt P08172); experiment: Displacement of N-methyl [3H]-scopolamine from recombinant human muscarinic acetylcholine receptor M2 expressed in CHO cells after 2 hrs by liquid scintillation counting; type: cell-based; conditions: for pKi: cho
T1 sequence (P08172 whole entry): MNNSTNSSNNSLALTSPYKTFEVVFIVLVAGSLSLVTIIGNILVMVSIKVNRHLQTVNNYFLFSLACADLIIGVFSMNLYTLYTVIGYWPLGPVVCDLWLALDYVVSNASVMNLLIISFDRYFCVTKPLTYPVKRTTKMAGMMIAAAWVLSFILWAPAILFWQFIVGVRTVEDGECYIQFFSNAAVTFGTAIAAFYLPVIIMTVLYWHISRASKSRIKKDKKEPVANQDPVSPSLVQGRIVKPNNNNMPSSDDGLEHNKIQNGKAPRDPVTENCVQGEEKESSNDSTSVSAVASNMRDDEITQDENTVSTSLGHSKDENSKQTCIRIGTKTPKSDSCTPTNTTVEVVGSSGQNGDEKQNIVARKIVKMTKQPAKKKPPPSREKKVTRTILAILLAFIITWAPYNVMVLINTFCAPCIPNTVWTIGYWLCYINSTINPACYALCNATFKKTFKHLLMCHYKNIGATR

[2] = target: T2, Growth hormone secretagogue receptor type 1 (Homo sapiens, UniProt Q92847); experiment: Displacement of [125I]-ghrelin from human GHS-R1a expressed in tetracycline inducible HEK293 cells after 8 hrs by liquid scintillation counting; type: cell-based; conditions: for pKi: hek293
T2 sequence (Q92847 whole entry): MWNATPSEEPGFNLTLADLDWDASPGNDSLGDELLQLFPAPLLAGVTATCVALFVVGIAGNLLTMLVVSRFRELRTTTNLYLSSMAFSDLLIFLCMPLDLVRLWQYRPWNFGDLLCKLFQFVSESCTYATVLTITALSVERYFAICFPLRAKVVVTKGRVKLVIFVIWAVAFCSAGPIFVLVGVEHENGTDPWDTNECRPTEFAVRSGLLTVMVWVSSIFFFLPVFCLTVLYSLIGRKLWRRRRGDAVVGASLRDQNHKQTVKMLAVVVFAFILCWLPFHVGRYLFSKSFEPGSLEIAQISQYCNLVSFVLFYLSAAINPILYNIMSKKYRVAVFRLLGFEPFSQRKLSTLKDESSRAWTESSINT

[3] = target: T2, Growth hormone secretagogue receptor type 1; experiment: Inverse agonist activity at human GHS-R1a expressed in tetracycline inducible HEK293 cells incubated for 24 hrs prior to europium-labeled GTP addition measured after 90 mins by DELFIA assay; type: cell-based; design: Activity: concentration or dose not given beside the values
[4] = Apparent intrinsic clearance in human liver microsomes; type: ADME, Microsome; conditions: read-out: CLH(app)
human MDR1 (P-gp) = experiment: Efflux ratio of permeability in MDCK cells expressing human MDR-1 gene; type: ADME, cell-based, Canis lupus familiaris; conditions: dog
[5] = target: T1, Muscarinic acetylcholine receptor M2; experiment: Binding affinity to muscarinic acetylcholine receptor M2 (unknown origin)

Ki [1] | Ki [2] | Activity [3] | pKb [3] | Compound | Occ (Rattus norvegicus) | other results
28200 nM | 15.5 nM | 22% | 7.13 | CCc1ccc(CC(=O)N2CCC3(CC2)CN([C@@H]2CCc4cc(-c5ncccn5)ccc42)C3)nc1 | 10% | 
407 nM |  |  |  | COc1ccc(CC(=O)N2CCC3(CC2)CN([C@H]2CCc4cc(-c5ncccn5)ccc42)C3)nc1 |  | IC50 [2]: 1100 nM
871 nM |  |  |  | COc1ccc(CC(=O)N2CCC3(CC2)CN(C2CCc4cc(-c5nccs5)ccc42)C3)nc1 (configuration not stated) |  | IC50 [2]: 30.2 nM
 |  | 21% | 6.98 | Cc1ccc(CC(=O)N2CCC3(CC2)CN([C@@H]2CCc4cc(-c5ncccn5)ccc42)C3)nc1 | 0.2% | microsomal CLint [4]: 22 µL/min/mg; efflux ratio (human MDR1 (P-gp)): 2; pKi [1]: < 4.56
 |  |  |  | COc1ccc(CC(=O)N2CCC3(CC2)CN([C@@H]2CCc4cc(-c5ncccn5)ccc42)C3)cc1 | 85% | 
 | 3.98 nM | 39% | 7.4 | COc1ccc(CC(=O)N2CCC3(CC2)CN([C@@H]2CCc4cc(-c5nccs5)ccc42)C3)nc1 | 35% | pKi [1]: < 4.25
 |  |  |  | Cc1cn2cc(CC(=O)N3CCC4(CC3)CN(Cc3ccc(-n5nccn5)cc3Cl)C4)nc2s1 |  | Ki [5]: 269 nM
2400 nM | 1700 nM |  |  | COc1ccc(CC(=O)N2CCC3(CC2)CN(C(C)c2ccc(-c4ncccn4)cc2)C3)nc1 (configuration not stated) |  | 
1620 nM |  |  |  | COc1ccc(CC(=O)N2CCC3(CC2)CN(C2CCc4cc(-c5ncccn5)ccc42)C3)nc1 (racemic) |  | IC50 [2]: 37.2 nM
 |  | 42% | 7.57 | COc1ccc(CC(=O)N2CCC3(CC2)CN([C@@H]2CCc4cc(-n5nccn5)ccc42)C3)nc1 | 50% | pKi [1]: < 4.42
1550 nM | 1380 nM |  |  | COc1ccc(CC(=O)N2CCC3(CC2)CN([C@H]2CCc4cc(-c5nccs5)ccc42)C3)nc1 |  | 
 |  | 40% | 7.07 | COc1ccc(CC(=O)N2CCC3(CC2)CN([C@@H]2CCc4cc(-c5ncc(C)cn5)ccc42)C3)nc1 | 5% | pKi [1]: < 4.17
2240 nM | 1120 nM |  |  | COc1ccc(CC(=O)N2CCC3(CC2)CN([C@@H](C)c2ccc(-c4ncccn4)cc2)C3)nc1 |  | 
14500 nM | 29.5 nM | 42% | 7.6 | COc1ccc(CC(=O)N2CCC3(CC2)CN([C@@H]2CCc4cc(-c5ncccn5)ccc42)C3)nc1 | 45% | 
 | 7.41 nM | 21% | 8.27 | COc1ccc(CC(=O)N2CCC3(CC2)CN([C@@H]2CCc4cc(-n5nccn5)ccc42)C3)cc1 | 74% | pKi [1]: < 4.26
 |  | 29% | 7.37 | CCc1cnc(-c2ccc3c(c2)CC[C@H]3N2CC3(CCN(C(=O)Cc4ccc(OC)cn4)CC3)C2)nc1 | 64% | pKi [1]: < 4.17
20000 nM | 25100 nM |  |  | COc1ccc(CC(=O)N2CCC3(CC2)CN([C@H](C)c2ccc(-c4ncccn4)cc2)C3)nc1 |  | 
1950 nM |  |  |  | COc1ccc(CC(=O)N2CCC3(CC2)CN(Cc2ccc(-c4ncccn4)cc2Cl)C3)cc1 |  | IC50 [2]: 15.8 nM
7080 nM | 3630 nM |  |  | COCC(c1ccc(-c2ncccn2)cc1)N1CC2(CCN(C(=O)Cc3ccc(OC)cn3)CC2)C1 (configuration not stated) |  | 
21900 nM |  | 40% | 7.23 | Cc1ccc(CC(=O)N2CCC3(CC2)CN([C@@H]2CCc4cc(-n5nccn5)ccc42)C3)nc1 | 23% | 
 |  | 23% | 7.38 | CCc1ccc(CC(=O)N2CCC3(CC2)CN([C@@H]2CCc4cc(-n5nccn5)ccc42)C3)nc1 | 74% | pKi [1]: < 4.59

Compound | Ki [1] | Ki [2] | Activity [3] | pKb [3] | Occ (Rattus norvegicus) | other results
COc1ccc(CC(=O)N2CCC3(CC2)CN([C@H](c2ccc(-c4ncccn4)cc2)C(C)C)C3)nc1 | 912 nM |  |  |  |  | pKi [2]: < 4.68
COc1ccc(CC(=O)N2CCC3(CC2)CN([C@@H](c2ccc(-c4ncccn4)cc2)C(C)C)C3)nc1 | 47.9 nM |  |  |  |  | pKi [2]: < 4.53
COc1ccc(CC(=O)N2CCC3(CC2)CN(C(c2ccc(-c4ncccn4)cc2)C(C)C)C3)nc1 (configuration not stated) | 151 nM |  |  |  |  | pKi [2]: < 4.52

Source: ChEMBL document CHEMBL2424611, “Identification of potent, selective, CNS-targeted inverse agonists of the ghrelin receptor” (Bioorg Med Chem Lett, 2013)
